According to patent US9518026B2, “5-aminopyrazole-4-carboxamide inhibitors of CDPK1 from T. gondii and C. parvum” (UNIVERSITY OF WASHINGTON THROUGH ITS CENTER FOR …, priority 2013, dated 2016):
Read-outs that look alike come from different tables or passages of the source.

Key:
TgCDPK1 = TgCDPK1 (Toxoplasma gondii, UniProt Q9BJF5); test: biochemical; settings: read-out: TgCDPK1 IC50
CpCDPK1 = CpCDPK1 (Cryptosporidium parvum (strain Iowa II), UniProt A3FQ16); test: biochemical; settings: Table 1; KinaseGlo, Syntide 2 peptide substrate; read-out: CpCDPK1 IC50
[1] = Table 1, KinaseGlo, Syntide 2 peptide substrate

TgCDPK1, sequence (Q9BJF5 1-507): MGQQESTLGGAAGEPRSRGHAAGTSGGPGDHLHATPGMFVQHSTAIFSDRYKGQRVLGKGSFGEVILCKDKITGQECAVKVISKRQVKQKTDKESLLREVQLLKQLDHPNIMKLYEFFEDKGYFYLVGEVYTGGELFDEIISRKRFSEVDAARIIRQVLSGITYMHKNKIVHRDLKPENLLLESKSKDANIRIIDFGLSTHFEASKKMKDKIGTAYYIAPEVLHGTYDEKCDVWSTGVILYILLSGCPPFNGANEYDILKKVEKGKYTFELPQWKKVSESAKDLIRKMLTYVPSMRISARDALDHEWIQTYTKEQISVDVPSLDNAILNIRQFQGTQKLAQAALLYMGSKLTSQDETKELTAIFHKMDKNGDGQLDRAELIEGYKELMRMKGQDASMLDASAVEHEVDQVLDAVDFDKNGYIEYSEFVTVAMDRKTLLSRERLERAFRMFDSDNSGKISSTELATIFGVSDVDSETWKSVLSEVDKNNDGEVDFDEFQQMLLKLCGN
CpCDPK1, sequence (A3FQ16 1-538): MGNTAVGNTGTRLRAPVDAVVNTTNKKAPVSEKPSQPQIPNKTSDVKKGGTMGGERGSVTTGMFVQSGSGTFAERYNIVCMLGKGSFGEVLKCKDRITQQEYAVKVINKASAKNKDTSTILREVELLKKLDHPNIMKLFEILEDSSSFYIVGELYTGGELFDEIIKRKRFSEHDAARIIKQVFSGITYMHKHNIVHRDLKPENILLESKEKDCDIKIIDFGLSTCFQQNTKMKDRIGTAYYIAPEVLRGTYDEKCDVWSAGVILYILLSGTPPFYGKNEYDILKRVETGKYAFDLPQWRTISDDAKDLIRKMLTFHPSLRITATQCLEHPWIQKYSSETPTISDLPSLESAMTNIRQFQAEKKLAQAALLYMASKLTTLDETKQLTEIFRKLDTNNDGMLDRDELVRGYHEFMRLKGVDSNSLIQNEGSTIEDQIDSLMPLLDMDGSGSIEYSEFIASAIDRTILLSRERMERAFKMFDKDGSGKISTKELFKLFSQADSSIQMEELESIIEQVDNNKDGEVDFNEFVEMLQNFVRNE

SMILES | IC50 (TgCDPK1; [1]) | IC50 (CpCDPK1) | IC50 (TgCDPK1)
CCOc1ccc2cc(-c3nn(C(C)C(C)(C)O)c(N)c3C(N)=O)ccc2n1 (centres unmarked) [Compound 1636, 5-amino-3-(2-ethoxyquinolin-6-yl)-1-(3-hydroxy-3-methylbutan-2-yl)-1H-pyrazole-4-carboxamide] | 58 nM | 18 nM | –
CCOc1ccc2cc(-c3nn(CC4CCN(C)CC4)c(N)c3C(N)=O)ccc2c1 [Compound 8, 5-amino-3-(6-ethoxynaphthalen-2-yl)-1-((1-methylpiperidin-4-yl)methyl)-1H-pyrazole-4-carboxamide] | – | 9 nM | 11 nM
CCOc1ccc2cc(-c3nn(CC(F)(F)F)c(N)c3C(N)=O)cnc2c1 [Compound 1575, 5-amino-3-(7-ethoxyquinolin-3-yl)-1-(2,2,2-trifluoroethyl)-1H-pyrazole-4-carboxamide] | – | 5 nM | –
CCOc1ccc2cc(-c3nn(C4CCCCCC4)c(N)c3C(N)=O)ccc2n1 [Compound 1632, 5-amino-1-cycloheptyl-3-(2-ethoxyquinolin-6-yl)-1H-pyrazole-4-carboxamide] | 7 nM | 6 nM | –
CCOc1ccc2cc(-c3nn(C(C)C(C)C)c(N)c3C(N)=O)cnc2c1 (centres unmarked) [Compound 1628, 5-amino-3-(7-ethoxyquinolin-3-yl)-1-(3-methylbutan-2-yl)-1H-pyrazole-4-carboxamide] | – | 5 nM | –
NC(=O)c1c(-c2ccc3ccccc3c2)nn(CCO)c1N [Compound 22, 5-amino-1-(2-hydroxyethyl)-3-(naphthalen-2-yl)-1H-pyrazole-4-carboxamide] | – | 21 nM | 15 nM
CCOc1ccc2cc(-c3nn(C(C)C(C)(C)CO)c(N)c3C(N)=O)cnc2c1 (centres unmarked) [Compound 1637, 5-amino-3-(7-ethoxyquinolin-3-yl)-1-(4-hydroxy-3,3-dimethylbutan-2-yl)-1H-pyrazole-4-carboxamide] | 12 nM | 4 nM | –
CCOc1ccc2cc(-c3nn(C(C)C(C)(C)O)c(N)c3C(N)=O)cnc2c1 (centres unmarked) [Compound 1626, 5-amino-3-(7-ethoxyquinolin-3-yl)-1-(3-hydroxy-3-methylbutan-2-yl)-1H-pyrazole-4-carboxamide] | 30 nM | 13 nM | –
CCOc1ccc2cc(-c3nn(CC(C)(C)O)c(N)c3C(N)=O)cnc2c1 [Compound 1641, 5-amino-3-(7-ethoxyquinolin-3-yl)-1-(2-hydroxy-2-methylpropyl)-1H-pyrazole-4-carboxamide] | 41 nM | 21 nM | –
CCOc1ccc2ncc(-c3nn(C4CCCCC4)c(N)c3C(N)=O)cc2c1 [Compound 1655, 5-amino-1-cyclohexyl-3-(6-ethoxyquinolin-3-yl)-1H-pyrazole-4-carboxamide] | > 2000 nM | > 2000 nM | –
CC(C)n1nc(-c2ccc3ccccc3c2)c(C(N)=O)c1N [Compound 13, 5-amino-1-isopropyl-3-(naphthalen-2-yl)-1H-pyrazole-4-carboxamide] | – | 7 nM | –
CCOc1ccc2cc(-c3nn(C(C)CO)c(N)c3C(N)=O)cnc2c1 (centres unmarked) [Compound 1627, 5-amino-3-(7-ethoxyquinolin-3-yl)-1-(1-hydroxypropan-2-yl)-1H-pyrazole-4-carboxamide] | 20 nM | 9 nM | –
NC(=O)c1c(-c2ccc3ccccc3c2)nn(C2CCCCC2)c1N [Compound 17, 5-amino-1-cyclohexyl-3-(naphthalen-2-yl)-1H-pyrazole-4-carboxamide] | – | 16 nM | 11 nM
CCOc1ccc2cc(-c3nn(C(CO)CO)c(N)c3C(N)=O)cnc2c1 [Compound 1629, 5-amino-1-(1,3-dihydroxypropan-2-yl)-3-(7-ethoxyquinolin-3-yl)-1H-pyrazole-4-carboxamide] | 120 nM | 52 nM | –
CCOc1ccc2cc(-c3nn(CCOC)c(N)c3C(N)=O)cnc2c1 [Compound 1594, 5-amino-3-(7-ethoxyquinolin-3-yl)-1-(2-methoxyethyl)-1H-pyrazole-4-carboxamide] | 321 nM | 172 nM | –
CCOc1ccc2cc(-c3nn(C(C)C)c(N)c3C(N)=O)ccc2n1 [Compound 1661, 5-amino-3-(2-ethoxyquinolin-6-yl)-1-isopropyl-1H-pyrazole-4-carboxamide] | 5 nM | 2 nM | –
CC(C)(C)n1nc(-c2ccc3oc(=O)ccc3c2)c(C(N)=O)c1N [Compound 34, 5-amino-1-(tert-butyl)-3-(2-oxo-2H-chromen-6-yl)-1H-pyrazole-4-carboxamide] | – | 200 nM | 32 nM
CCOc1ccc2cc(-c3nn4c(c3C(N)=O)NC(=O)C4)cnc2c1 [Compound 1609, 6-(7-ethoxyquinolin-3-yl)-2-oxo-2,3-dihydro-1H-imidazo[1,2-b]pyrazole-7-carboxamide] | 1430 nM | 577 nM | –
CCOc1ccc2cc(-c3n[nH]c(N)c3C(N)=O)cnc2c1 [Compound 1593, 5-amino-3-(7-ethoxyquinolin-3-yl)-1H-pyrazole-4-carboxamide] | 164 nM | 67 nM | –
CN1CCC(Cn2nc(-c3ccc4ccccc4c3)c(C(N)=O)c2N)CC1 [Compound 21, 5-amino-1-((1-methylpiperidin-4-yl)methyl)-3-(naphthalen-2-yl)-1H-pyrazole-4-carboxamide] | – | 17 nM | 39 nM

SMILES | IC50 (TgCDPK1; [1]) | IC50 (CpCDPK1) | IC50 (TgCDPK1)
NC(=O)c1c(-c2ccc3ccccc3c2)nn(CC2CC2)c1N [Compound 15, 5-amino-1-(cyclopropylmethyl)-3-(naphthalen-2-yl)-1H-pyrazole-4-carboxamide] | – | 10 nM | 7 nM
COCCOc1ccc2cc(-c3nn(C(C)(C)C)c(N)c3C(N)=O)cnc2c1 [Compound 1570, 5-amino-1-(tert-butyl)-3-(7-(2-methoxyethoxy)quinolin-3-yl)-1H-pyrazole-4-carboxamide] | 258 nM | 255 nM | –
CCOc1ccc2cc(-c3nn(CC4CCCCC4)c(N)c3C(N)=O)cnc2c1 [Compound 1574, 5-amino-1-(cyclohexylmethyl)-3-(7-ethoxyquinolin-3-yl)-1H-pyrazole-4-carboxamide] | – | 30 nM | –
CN1CCC(n2nc(-c3ccc4ccccc4c3)c(C(N)=O)c2N)CC1 [Compound 20, 5-amino-1-(1-methylpiperidin-4-yl)-3-(naphthalen-2-yl)-1H-pyrazole-4-carboxamide] | – | 13 nM | 26 nM
CCOc1ccc2ncc(-c3nn(C(C)(C)C)c(N)c3C(N)=O)cc2c1 [Compound 1654, 5-amino-1-(tert-butyl)-3-(6-ethoxyquinolin-3-yl)-1H-pyrazole-4-carboxamide] | > 2000 nM | > 2000 nM | –
CCOc1ccc2cc(-c3nn(C4CCOC4)c(N)c3C(N)=O)ccc2n1 (centres unmarked) [Compound 1634, 5-amino-3-(2-ethoxyquinolin-6-yl)-1-(tetrahydrofuran-3-yl)-1H-pyrazole-4-carboxamide] | – | 3 nM | –
Cc1oc2ccccc2c1-c1nn(C(C)(C)C)c(N)c1C(N)=O [Compound 27, 5-amino-1-(tert-butyl)-3-(2-methylbenzofuran-3-yl)-1H-pyrazole-4-carboxamide] | – | – | 710 nM
CC(C)(C)n1nc(-c2cnc3cc(C(F)(F)F)ccc3c2)c(C(N)=O)c1N [Compound 1555, 5-amino-1-tert-butyl-3-(7-(trifluoromethyl)quinolin-3-yl)-1H-pyrazole-4-carboxamide] | – | 222 nM | –
COc1ccc2cc(-c3n[nH]c(N)c3C(N)=O)ccc2c1 [Compound 11, 5-amino-3-(6-methoxynaphthalen-2-yl)-1H-pyrazole-4-carboxamide] | – | 48 nM | 81 nM
CCc1ccc2cc(-c3nn(C(C)(C)C)c(N)c3C(N)=O)cnc2c1 [Compound 1592, 5-amino-1-(tert-butyl)-3-(7-ethylquinolin-3-yl)-1H-pyrazole-4-carboxamide] | – | 85 nM | –
CC(C)(C)n1nc(-c2cnc3cc(OC4CC4)ccc3c2)c(C(N)=O)c1N [Compound 1586, 5-amino-1-(tert-butyl)-3-(7-cyclopropoxyquinolin-3-yl)-1H-pyrazole-4-carboxamide] | – | 5 nM | –
Cn1c(=O)[nH]c2cc(-c3nn(C(C)(C)C)c(N)c3C(N)=O)ccc21 [Compound 31, 5-amino-1-(tert-butyl)-3-(1-methyl-2-oxo-2,3-dihydro-1H-benzo[d]imidazol-5-yl)-1H-pyrazole-4-carboxamide] | 640 nM | > 3000 nM | –
Cn1c(N)nc2cc(-c3nn(C(C)(C)C)c(N)c3C(N)=O)ccc21 [Compound 33, 5-amino-3-(2-amino-1-methyl-1H-benzo[d]imidazol-5-yl)-1-(tert-butyl)-1H-pyrazole-4-carboxamide] | – | – | 730 nM
Nc1ncnc2c1c(-c1ccc3ccccc3c1)nn2CC1CCNCC1 [Compound 7, 3-(naphthalen-2-yl)-1-(piperidin-4-ylmethyl)-1H-pyrazolo[3,4-d]pyrimidin-4-amine, reference compound] | – | 1 nM | –
CC(C)(C)n1nc(-c2ccc3cc(O)ccc3c2)c(C(N)=O)c1N [Compound 24, 5-amino-1-(tert-butyl)-3-(6-hydroxynaphthalen-2-yl)-1H-pyrazole-4-carboxamide] | – | 17 nM | –
CCOc1ccc2cc(-c3nn(C(C)(C)C)c4ncnc(N)c34)ccc2c1 [Compound 4, 1-tert-butyl-3-(6-ethoxynaphthalen-2-yl)-1H-pyrazolo[3,4-d]pyrimidin-4-amine, reference compound] | – | 43 nM | –
CC(C)Cn1nc(-c2ccc3ccccc3c2)c(C(N)=O)c1N [Compound 14, 5-amino-1-isobutyl-3-(naphthalen-2-yl)-1H-pyrazole-4-carboxamide] | – | 16 nM | –
CC(C)(C)n1nc(-c2cnc3cc(OCC4CC4)ccc3c2)c(C(N)=O)c1N [Compound 1585, 5-amino-1-(tert-butyl)-3-(7-(cyclopropylmethoxy)quinolin-3-yl)-1H-pyrazole-4-carboxamide] | – | 9 nM | –
Cn1nc(N)c2ccc(-c3nn(C(C)(C)C)cc3C(N)=O)cc21 [Compound 29, 3-(3-amino-1-methyl-1H-indazol-6-yl)-1-(tert-butyl)-1H-pyrazole-4-carboxamide] | 17 nM | – | –
